Results as given in publication PMC6262455 (Cells, 2018).
Like-named read-outs stand apart in the source and are kept apart here.

Tests used:
Type in all cases: cell-based
[1] = tested on: human colon adenocarcinoma cell line (LoVo); test: cells; conditions: for IC50: LoVo, 72 h, read-out: IC50 LoVo; for SI LoVo: SI = IC50 BALB/3T3 / IC50 LoVo
From the text: (§1) The BALB/3T3 cell line was purchased from the American Type Culture Collection (ATCC, Manassas, VA, USA), A549 and MCF-7 cell lines—from European Collection of Authenticated Cell Cultures (Salisbury, UK). The LoVo cell line was purchased from the American Type Culture Collection (ATCC, Manassas, VA, USA), and LoVo/DX by courtesy of Prof. E. Borowski (Technical University of Gdańsk, Gdańsk, Poland). All the cell lines are maintained in the Institute of Immunology and Experimental Therapy (IIET), Wroclaw, Poland. The human lung adenocarcinoma cell line was cultured in a mixture of OptiMEM and RPMI 1640 (1:1) medium (IIET, Wroclaw, Poland), supplemented with 5% foetal bovine serum (GE Healthcare, Logan UT, USA) and 2 mM L-glutamine (Sigma-Aldrich, Merck KGaA, Saint Louis, MO, USA). Human breast adenocarcinoma cell line was cultured in mixture of Eagle’s medium (IIET, Wroclaw, Poland), supplemented with 10% fetal bovine serum, 2 mM L-glutamine, 8 μg/mL insulin, and 1% amino-acids (Sigma-Aldrich, Merck KGaA, Saint Louis, MO, USA). […] Murine embryonic fibroblast cells were cultured in Dulbecco medium (Life Technologies Limited, Paisley, UK), supplemented with 10% foetal bovine serum (GE Healthcare, Logan, UT, USA) and 2 mM glutamine (Sigma-Aldrich, Merck KGaA, Saint Louis, MO, USA). All culture media contained antibiotics: 100 U/mL penicillin and 100 μg/mL streptomycin (Polfa–Tarchomin, Warsaw, Poland). All cell lines were cultured during the entire experiment in a humid atmosphere at 37 °C and 5% CO2. […] The procedure was repeated every year or in the case of less frequently used lines: after thawing.
(§2) Twenty-four h before adding the tested compounds, all cell lines were seeded in 96-well plates (Sarstedt, Nümbrecht, Germany) in appropriate media with 10^4 cells per well. All cell lines were exposed to each tested agent at four different concentrations in the range 100–0.01 μg/mL for 72 h. […] Additionally, all cell lines were exposed to DMSO (solvent used for tested compounds) (POCh, Gliwice, Poland) at concentrations corresponding to these present in tested agents’ dilutions. After 72 h sulforhodamine B assay (SRB) was performed.
(§3) After 72 h of incubation with the tested compounds, cells were fixed in situ by gently adding 50 μL per well of cold 50% trichloroacetic acid TCA (POCh, Gliwice, Poland) and were incubated at 4 °C for one hour. Following, wells were washed four times with water and air dried. Next, 50 μL of 0.1% solution of sulforhodamine B (Sigma-Aldrich, Merck KGaA, Saint Louis, MO, USA) in 1% acetic acid (POCh, Gliwice, Poland) were added to each well and plates were incubated at room temperature for 0.5 h. After incubation time, unbound dye was removed by washing plates four times with 1% acetic acid whereas stain bound to cells was solubilized with 10 mM Tris base (Sigma-Aldrich, Merck KGaA, Saint Louis, MO, USA). Absorbance of each solution was read at Synergy H4 Hybrid Multi-Mode Microplate Reader (BioTek Instruments, Inc., Winooski, VT, USA) at the 540 nm wavelength.
(§4) IC50 values were calculated in Cheburator 0.4, Dmitry Nevozhay software (version 1.2.0 software by Dmitry Nevozhay, 2004–2014, http://www.cheburator.nevozhay.com, freely available) for each experiment. Compounds at each concentration were tested in triplicates in single experiment and each experiment was repeated at least three times independently. The Resistance Index (RI) was defined as the ratio of IC50 for a given compound calculated for resistant cell line to that measured for its parental drug sensitive cell line (Table 1).

[2] = tested on: doxorubicin-resistant human colon adenocarcinoma subline (LoVo/DX); test: cells; conditions: for IC50: LoVo/DX, 72 h, read-out: IC50 LoVo/DX; for RI (resistance index): RI = IC50 LoVo/DX / IC50 LoVo; for SI LoVo/DX: SI = IC50 BALB/3T3 / IC50 LoVo/DX
From the text: as §1, §2, §3, §4

[3] = tested on: human breast adenocarcinoma (MCF-7); test: cells; conditions: for IC50: read-out: IC50 MCF-7; for SI MCF-7: SI = IC50 BALB/3T3 / IC50 MCF-7
From the text: as §1, §2, §3, §4

[4] = tested on: human lung adenocarcinoma (A549); test: cells; conditions: for IC50: A549, 72 h, read-out: IC50 A549; for SI A549: SI = IC50 BALB/3T3 / IC50 A549
From the text: as §1, §2, §3, §4

[5] = tested on: normal murine embryonic fibroblast cell line (BALB/3T3); test: Antiproliferative SRB assay, 72 h, normal cells BALB/3T3; conditions: BALB/3T3, 72 h, mean ± SD
From the text: as §1, §2, §3, §4

SMILES	IC50 ([1]; SRB, mean ± SD) [nM]	SI LoVo [1]	IC50 ([2]; SRB, mean ± SD) [nM]	RI (resistance index) [2]	SI LoVo/DX [2]	IC50 ([3]; MCF-7, 72 h, SRB, mean ± SD) [nM]	SI MCF-7 [3]	IC50 ([4]; SRB, mean ± SD) [nM]	SI A549 [4]	IC50 [5] [nM]	IC50 ([1]; Homo sapiens) [nM]	IC50 ([2]; Homo sapiens) [nM]	IC50 ([3]; Homo sapiens, MCF7, 72 h) [nM]	IC50 ([4]; Homo sapiens) [nM]	IC50 ([5]; Mus musculus) [nM]	IC50 ([2]; Homo sapiens, SRB, mean ± SD) [nM]	IC50 ([4]; Homo sapiens, SRB, mean ± SD) [nM]
N.N.[Cl][Pt][Cl] [Cisplatin, reference compound]	4370 ± 730	0.89	5700 ± 630	1.3	0.68	10700 ± 753	0.36	6370 ± 1410	0.61	3900 ± 1500							
COc1c(Br)c2c(c(OC)c1OC)-c1ccc(OC)c(=O)cc1[C@@H](NC(C)=O)CC2 [Compound 2, 4-bromocolchicine]		1.69		18.45	0.09		5.26		1.35		84 ± 21	1550 ± 170	27 ± 8	105 ± 8	142 ± 73		
COc1c(Br)c2c(c(OC)c1OC)-c1ccc(SC)c(=O)cc1[C@@H](NC(C)=O)CC2 [Compound 3, 4-bromothiocolchicine]		7.36		9.64	0.76		6.87		10.3		14 ± 4	135 ± 12	15 ± 2	10 ± 0.1	103 ± 89		
COc1c(Br)c2c(c(OC)c1OC)-c1ccc(SC)c(=O)cc1[C@@H](N)CC2 [Compound 4, 4-bromo-N-deacetylthiocolchicine]		10.08		5.60	1.80		7.08				125 ± 44	700 ± 88	178 ± 20	115 ± 7	1260 ± 796		
COc1c(Br)c2c(c(OC)c1OC)-c1ccc(SC)c(=O)cc1[C@@H](NC(=O)OCCO)CC2 [Compound 5]		1.41		13.65	0.10		1.82		1.41		74 ± 19	1010 ± 20	57 ± 11	74 ± 9	104 ± 43		
COC(=O)N[C@H]1CCc2c(Br)c(OC)c(OC)c(OC)c2-c2ccc(SC)c(=O)cc21 [Compound 6]											7 ± 2	50 ± 10		10 ± 0.1	66 ± 31		
CCOC(=O)N[C@H]1CCc2c(Br)c(OC)c(OC)c(OC)c2-c2ccc(SC)c(=O)cc21 [Compound 7]				6.45	1.44		5.67				11 ± 4	71 ± 10	18 ± 2	12 ± 4	102 ± 63		
COc1c(Br)c2c(c(OC)c1OC)-c1ccc(SC)c(=O)cc1[C@@H](NC(=O)OCC(F)(F)F)CC2 [Compound 8]				4.11	1.86		2.51				18 ± 10	74 ± 7	55 ± 26	30 ± 21	138 ± 10		
CCCOC(=O)N[C@H]1CCc2c(Br)c(OC)c(OC)c(OC)c2-c2ccc(SC)c(=O)cc21 [Compound 9]				6.55	1.61		4.30				11 ± 0.1	72 ± 11	27 ± 7	12 ± 4	116 ± 9		
COc1c(Br)c2c(c(OC)c1OC)-c1ccc(SC)c(=O)cc1[C@@H](NC(=O)OC(C)C)CC2 [Compound 10]		3.20			1.94		1.31		1.94		54 ± 17	89 ± 26	132 ± 17	89 ± 20	173 ± 108		
CCCCOC(=O)N[C@H]1CCc2c(Br)c(OC)c(OC)c(OC)c2-c2ccc(SC)c(=O)cc21 [Compound 11]		2.35			1.60		1.17		1.54		62 ± 13	91 ± 9	125 ± 14	95 ± 5	146 ± 14		
COc1c(Br)c2c(c(OC)c1OC)-c1ccc(SC)c(=O)cc1[C@@H](NC(=O)OCCOCCO)CC2 [Compound 12]		0.48		15.09	0.03		1.08				281 ± 185	4240 ± 1330	125 ± 15	93 ± 14	135 ± 15		
COc1cccc2c1C(=O)c1c(O)c3c(c(O)c1C2=O)C[C@@](O)(C(=O)CO)C[C@@H]3O[C@H]1C[C@H](N)[C@H](O)[C@H](C)O1 [Doxorubicin, reference compound]															166 ± 74	4750 ± 990	258 ± 44
